From the supplement of paper PMC10307832

Key:
Assay in all cases: relative viability (nuclei count vs DMSO), 5 days (fraction); higher = more cells survive
[1] = compound: C1=CC=C2C(=C1)N=C(S2)C(C#N)C3=NC(=NC=C3)NCCC4=CN=CC=C4 + CC(=O)c1c(C)c2cnc(Nc3ccc(N4CCNCC4)cn3)nc2n(C2CCCC2)c1=O [Palbociclib] (partner 0.5 µM)
In short: (§1)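 Five library-drug doses in √10 steps were combined with a fixed anchor-drug dose, or a single drug was given alone, by pin tool to lung cancer cell lines in 1536-well plates the day after seeding. Nuclei were stained and counted after 5 days. Relative viability is the nuclei count in treated wells over that in vehicle wells, taken as the median of duplicate plates.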

[2] = compound: C1=CC=C2C(=C1)N=C(S2)C(C#N)C3=NC(=NC=C3)NCCC4=CN=CC=C4 + C[C@@H](Oc1cc(-c2cnn(C3CCNCC3)c2)cnc1N)c1c(Cl)ccc(F)c1Cl [Crizotinib] (partner 1 µM)
In short: as §1

[3] = compound: C1=CC=C2C(=C1)N=C(S2)C(C#N)C3=NC(=NC=C3)NCCC4=CN=CC=C4 + C[C@]1(O)C[C@@H](c2nc(-c3ccc4ccc(-c5ccccc5)nc4c3)c3c(N)nccn32)C1 [Linsitinib] (partner 1 µM)
In short: as §1

[4] = compound: C1=CC=C2C(=C1)N=C(S2)C(C#N)C3=NC(=NC=C3)NCCC4=CN=CC=C4 + Cc1nc(NC(=O)N2CCC[C@H]2C(N)=O)sc1-c1ccnc(C(C)(C)C(F)(F)F)c1 [Alpelisib] (partner 2 µM)
In short: as §1

Cell Line	relative viability ([1]; first compound 0.005 µM)	relative viability ([1]; first compound 0.01581 µM)	relative viability ([1]; first compound 0.05 µM)	relative viability ([1]; first compound 0.1581 µM)	relative viability ([1]; first compound 0.5 µM)	relative viability ([2]; first compound 0.005 µM)	relative viability ([2]; first compound 0.01581 µM)	relative viability ([2]; first compound 0.05 µM)	relative viability ([2]; first compound 0.1581 µM)	relative viability ([2]; first compound 0.5 µM)	relative viability ([3]; first compound 0.005 µM)	relative viability ([3]; first compound 0.01581 µM)	relative viability ([3]; first compound 0.05 µM)	relative viability ([3]; first compound 0.1581 µM)	relative viability ([3]; first compound 0.5 µM)	relative viability ([4]; first compound 0.005 µM)	relative viability ([4]; first compound 0.01581 µM)	relative viability ([4]; first compound 0.05 µM)	relative viability ([4]; first compound 0.1581 µM)	relative viability ([4]; first compound 0.5 µM)
201T	0.292	0.354	0.354	0.383	0.325	0.978	1.03	1.02	1.07	0.995	1.07	1.01	1.06	1.06	0.974	0.995	1.08	1.04	1.03	0.967
A549						0.539	0.795	0.837	0.705	0.554	0.476	0.684	0.549	0.661	0.595	0.64	0.9	0.696	1.02	0.82
A-427	0.542	0.5	0.519	0.525	0.56	0.69	0.979	0.984	0.951	0.899	1.05	1.12	1.11	1.17	1.13	1.08	1.01	0.996	1.09	1.16
ABC-1	0.525		0.597	0.554	0.451	1.05	1.1	0.941	1.21	0.925	0.979	0.887	1.01	0.962	0.601	1.05	1.05	1.2	0.961	1.07
BEN	0.417	0.472	0.473	0.473	0.444	0.668	0.924	0.82	0.785	0.806	0.6	0.953	0.885	0.973	0.74	0.763	1.1	0.931	0.99	0.932
Calu-6						0.479	0.771	0.831	0.907	0.638	0.884	0.982	0.89	1.07	0.914	0.957	0.921	0.921	1.03	0.998
ChaGo-K-1	0.731	0.979	0.903	1.01	0.911	0.761		1.2	1.29	1.02										
EBC-1						0.236	0.172	0.189	0.224	0.22	1.04	0.871	0.502	1.01	0.812	0.819	0.935	0.76	0.829	0.925
IA-LM							0.985	0.922	0.808	0.808		0.544	0.32	0.607	0.637		0.628	0.608	0.916	0.734
NCI-H522	0.95	0.958	0.96	0.917	1.09															
NCI-H596						0.864	1.03	0.939	1.16	0.952	0.921	1.12	1.05	1.15	0.951	0.401	0.576	0.44	0.541	0.384
NCI-H1299						0.943	0.964	0.989	0.95	0.871	0.92	0.99	0.744	1.07	0.912	1.06	1.14	1.04	1.13	1.1
NCI-H1395	0.616		0.524	0.726	0.601						1.07		0.978	1.07	1.29	1.14		0.939	1.04	1.21
NCI-H1563						0.86	0.843	0.838	0.814	0.815	1.27	1.32	1.16	1.2	1.18	0.924	0.869	0.947	0.962	0.861
NCI-H1648		0.294		0.331	0.281															
NCI-H1650	0.318	0.272	0.336	0.395	0.175	0.609	0.852	0.865	1.01	0.57										
NCI-H1703						0.666	0.684	0.536	0.542	0.458	0.547	0.711		0.718	0.676	0.338	0.31	0.344	0.362	0.357
NCI-H1793		0.344	0.29	0.319	0.276						0.782	0.956	0.886	1.25	0.87	0.692	0.521	0.55	0.763	0.739
NCI-H2170	0.284	0.391	0.38	0.43	0.34		1.33	1.1	1.31	1.05							0.801	0.845	0.838	0.723
NCI-H2342	0.481	0.513	0.52	0.501	0.557															
SW 900	0.441	0.496	0.412	0.586	0.458															
